Laboratory results published in patent US9302993B2, “8-hydroxy quinoline derivatives” (PRANA BIOTECHNOLOGY LIMITED, priority 2002, dated 2016).
Where “and” joins values, the source holds several entries; their conditions need not be identical. Equal values may be shown once. Read-outs that look alike come from different tables or passages of the source.

Columns and labels:
[1] = molecular target: T1, hydrogen peroxide generation by Aβ in the presence of copper (Homo sapiens, UniProt P05067); assay: Fluorometric H2O2 assay (Assay 1); assay type: biochemical; conditions: Aβ 1-42 with Cu-Gly, DCF/HRP, 37 C 60 min; several values in one cell = repeat determinations; read-out: Peroxide IC50
T1 construct: The reaction solutions contained Aβ 1-42 at concentrations in the range of 50 nM to 1 μM
T1 sequence (P05067 672-713 limits assumed): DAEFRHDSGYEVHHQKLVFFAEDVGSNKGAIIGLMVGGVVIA
Method: Assay 1. Fluorometric H2O2 Assay
A fluorometric assay was used to test the ability of a test compound to inhibit hydrogen peroxide generation by Aβ in the presence of copper based on dichlorofluoroscein diacetate (DCF; Molecular Probes, Eugene Oreg.). The DCF solution (5 mM) in 100% dimethyl sulphoxide (previously purged with argon for 2 hr at 20° C.) was deacetylated in the presence of 0.25M NaOH for 30 min and neutralised at pH 7.4 to a final concentration of 1 mM. Horseradish peroxidase (HRP) stock solution was prepared to 1 μM at pH 7.4. The reactions were carried out in PBS, pH 7.4 in a 96 well plate (total volume=250 μl/well). The reaction solutions contained Aβ 1-42 at concentrations in the range of 50 nM to 1 μM, copper-glycine chelate (Cu-Gly), was prepared by adding CuCl2 to glycine in the ratio of 1:6 and added to the Aβ in the proportion 2Cu-Gly: 1Aβ), reducing agents including dopamine (5 μM) or ascorbic acid, deacetylated DCF 100 μM, and HRP, 0.1 μM. […] The reaction mixture was incubated at 37 C for 60 min. […] H2O2 concentration may be established by comparing fluorescence with the H2O2 standards. Inhibition of AB H2O2 production was assayed by including a given concentration of test compound(s) in the test wells.

[2] = system: Neuronal cortical cells treated with Aβ1-42; assay: Assay for Aβ neurotoxicity and Aβ neuroprotection (Assay 3(c)); assay type: cell-based, mouse; conditions: 20 uM Aβ1-42, 4 days, MTS
Method: (§1) Media was then replaced with Neurobasal media (Invitrogen Life Technologies) and B27 supplements (Invitrogen Life Technologies). Cultures were maintained at 37° C. in 5% CO2. Prior to experimentation, the culture medium was replaced with Neurobasal media and B27 minus antioxidants (Invitrogen Life Technologies).
(c) Assay for Aβ Neurotoxicity and Aβ Neuroprotection
Neuronal cortical cells were cultured for five days as per Assay 2. On day six the neurobasal (NB) media (Invitrogen Life Technologies) and B27 supplement (Invitrogen Life Technologies) were replaced with NB media and B27 supplement (no antioxidants). On day six, test compounds were individually added to the neuronal cell cultures:
Aβ was initially dissolved in 20 mM NaOH to a concentration of 1 mM and sonicated for 5 minutes. The peptide was then diluted in H2O and 10×PBS to a final concentration of 200 uM Aβ in 1×PBS. The peptide was again sonicated for 5 minutes and then spun at 14000 rpm for 5 min and transferred to a fresh tube.
The test compounds were dissolved in 100% DMSO to a concentration of 2.5 mM (10 mM if excess compound was weighed out per vial—then diluted to 2.5 mM). […] Test compounds were not added directly to cells, instead they were added to a 48 well ‘Drug Plate’ as comprised below:
(§2) The Drug Plate was incubated at 37° C. for 15 mins. 200 ul of each well was added in triplicate to the corresponding cell plate. The cell plate was incubated at 37 C, for 4 days.
On the 4th day after treating the cells the assay is completed by adding MTS to the cells.

Neuronal cortical cells = assay: Assay for test compound cytoxicity, MTS (Assay 3(d)); assay type: cell-based, mouse; conditions: BL6J×129sv, mouse, 4 days
Method: as §1
Cell viability is determined using the MTS assay. Culture medium is […] replaced with fresh neurobasal medium plus B27 supplements minus antioxidants. 1/10th volume MTS solution (Cell Titre 96 Aqueous One, Promega Corporation) and incubated at 37° C., 2 hrs. 200 microliter aliquots are measured with a spectrophotometer at 560 nm.
(d) Assay for Test Compound Cytoxicity
Neuronal cortical cells were cultured for five days as per Assay 2 in NB media and B27 supplement.
On day six the test compounds were added to the neuronal cell cultures in NB media and B27 supplement minus antioxidants.
Test compounds were dissolved in 100% DMSO to a concentration of 2.5 mM (10 mM if excess compound was weighed out per vial—then diluted to 2.5 mM). […] Test compounds were not added directly to cells, instead they were added to a 48 well ‘Drug Plate’ as comprised below:
as §2
On completion of the assay, 1/10 volume MTS was added per well of plate (ie 25 ul/250 ul). The plates were incubated at 37 C for 2 hrs, and then absorbance was read at 560 nm.

[3] = system: Aβ in extract of tissue from post mortem human AD brain; assay: Human brain amyloid solubilisation assay (Assay 9, BAS); assay type: biochemical
Method: Assay 9. Human Brain Amyloid Solubilisation Assay
This assay was performed in order to assess the ability of a test compound to mobilise Aβ from the insoluble to the soluble phase of an extract of tissue from post mortem human AD brain.
Up to 0.5 g of plaque-bearing cortex without meninges was homogenized using a DIAX 900 homogenizer (Heudolph and Co, Kelheim, Germany) or other suitable device for three 30-second periods at full speed in 2 ml of ice-cold phosphate-buffered saline, pH 7.4. To obtain the phosphate-buffered saline-extractable fraction, the homogenate was centrifuged at 100,000×g for 30 min and the supernatant removed. Alternatively, the tissue was freeze dried then pulverised to form a powder which was then weighed out into aliquots for extraction as above. Supernatant, either freeze-dried and resuspended or in unconcentrated form, was dissolved in 200 μl of Tris-Tricine sodium dodecyl sulfate (SDS) sample buffer pH 8.3 containing 8% SDS, 10% 2-mercaptoethanol. Aliquots (10 μl) were then boiled for 10 minutes before SDS-polyacrylamide gel electrophoresis. The insoluble fraction of the cortical samples was obtained by resuspending the initial pelleted sample in 1 ml of phosphate-buffered saline. A 50-μl aliquot of this suspension was then boiled in […] of sample buffer as above.
Tris-Tricine polyacrylamide gel electrophoresis was performed by loading appropriately diluted samples on to 10% to 20% gradient gels (Novex, San Diego, Calif.) followed by transfer on to 0.2-μm nitrocellulose membrane (Bio-Rad, Hercules, Calif.). Aβ was detected by using monoclonal antibody W02, which detects residues 5 through 8, […] (or another suitable antibody) in conjunction with horseradish peroxidase-conjugated rabbit anti-mouse IgG (Dako, Denmark), and visualized by using enhanced chemiluminescence (eg ECL; Amersham Life Science, Buckinghamshire, UK). Each gel included three lanes containing 0.5, 1, and 2 ng of synthetic Aβ40 (Keck Laboratory, Yale University, New Haven, Conn.) as reference standards.
Blot films were scanned by using a suitable imaging system such as the UVP gel documentation system, and densitometry performed using suitable software, eg UVP Labworks. The dynamic range of the film/scanner was determined by using a step tablet (No. 911ST600, Kodak, Rochester N.Y.), a calibrated film exposed by the manufacturer to provided steps of known increasing intensity. The quantifiable range of signal intensity for densitometric analysis of the mono- and dimeric Aβ bands was based on the comparison with a curve obtained by scanning and densitometry of the step tablet.
All samples were analysed at least twice, and gel loadings and dilutions were adjusted to fit within the quantifiable region of the standard curve. […] The insoluble Aβ being comprised of the pelletable fraction derived from the insoluble amyloid plaque from the above cortical samples and the soluble fraction comprising monomeric and/or oligomeric soluble Aβ.

[4] = solubilising plaques relative to PBS

Compound	IC50 [1]	% inhibition Abeta toxicity [2] [%]	Test Compound Cytoxicity 1 uM (Neuronal cortical cells)	Test Compound Cytoxicity 10 uM (Neuronal cortical cells)	BAS Score [3, 4]	Viable 10 uM (Neuronal cortical cells)	BAS Score [3]
CSc1ccccc1-c1ccc2cccc(O)c2n1 [compound 1005]	2400 nM	1	100	95			
CC(=O)c1ccc2cccc(O)c2n1 [compound 976]	3700 nM				−		
Cc1ccccc1-c1cc(-c2ccccc2C)c2cccnc2c1O [compound 852]					+	33.52	
O/N=C/c1ccc2c(Cl)cc(Cl)c(O)c2n1 [compound 1031]	760 nM	8	85	81			
Oc1c(-c2ccccc2)cc(-c2ccccc2)c2cccnc12 [compound 809]	< 4000 nM and 1800 nM				+	26.31	
O=C(NCCc1cnc[nH]1)c1cc(O)c2cccc(O)c2n1 [compound 954]	180 nM				−	104.9	
O=C(Nc1ccccc1O)c1ccc2cccc(O)c2n1 [compound 951]	1430 nM				−	91.86	
Oc1c(-c2ccccc2F)cc(-c2ccccc2F)c2cccnc12 [compound 975]	3200 nM				+		
O=C(NCc1ccccn1)c1ccc2cccc(O)c2n1 [compound 949]	900 nM				+	84.82	
NC(=O)c1ccc2c(Cl)cc(Cl)c(O)c2n1 [compound 1037]	> 10000 nM	4	88	87			
O=C(NCc1ccccn1)c1cc(O)c2cccc(O)c2n1 [compound 955]	260 nM and 180 nM				−	100	
Oc1cccc2ccc(CN(Cc3ccccn3)Cc3c[nH]cn3)nc12 [compound 1011]	320 nM	21	89	31			
Oc1cccc2ccc(CN(Cc3ccccn3)Cc3nccs3)nc12 [compound 1003]	550 nM	17	97	38			
Oc1c(-c2ccccc2C(F)(F)F)cc(-c2ccccc2C(F)(F)F)c2cccnc12 [compound 974]	600 nM				+		
Cc1cccc(-c2cc(Cl)c3cccnc3c2O)c1 [compound 859]					+		
Oc1c(I)cc(I)c2cccnc12 [compound 46]	1000 nM				−	91.97	
CN(C)c1ccc(-c2cc(Cl)c3cccnc3c2O)cc1 [compound 851]	< 700 nM				−		
Oc1cccc2ccc(CNCCc3c[nH]cn3)nc12 [compound 989]	420 nM				−	43.24	
O=C(CNC(=O)c1cc(O)c2cccc(O)c2n1)NCc1ccccn1 [compound 988]					−	93.27	
NCCNC(=O)c1ccc2cccc(O)c2n1 [compound 957]					+	95.86	
Oc1c(I)cc(-c2ccccc2C(F)(F)F)c2cccnc12 [compound 860]					+		
N=C(N)NCc1ccc2cccc(O)c2n1 [compound 966]	4300 nM				+	88.61	
Cc1ccccc1-c1cc(I)c(O)c2ncccc12 [compound 861]	910 nM				+	37.83	
Nc1ccc(O)c2ncccc12 [compound 44]						71.05	+
COc1ccccc1-c1cc(-c2ccccc2OC)c2cccnc2c1O [compound 862]					+		
O=S(=O)(O)c1cc(I)c(O)c2ncccc12 [compound 43]	600 nM				−	91.02	
Oc1ccc(Cl)c2cccnc12 [compound 48]	800 nM				−	85	
COc1ccccc1-c1cc(I)c(O)c2ncccc12 [compound 863]					+	34.97	
Oc1cccc2ccc(CNCc3ccccn3)nc12 [compound 991]					+		
